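1) Cells in 96-well plates. 2) Compound, 48 h, 5 concentrations. 3) Linear interpolation between surrounding doses. 4) Unreached endpoint = highest concentration. TGI denotes the concentration required for complete inhibition of growth.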

Among the test systems are COLO 205 colon; HL-60(TB) leukemia; UACC-257 melanoma; K-562 leukemia; MOLT-4 leukemia; LOX IMVI melanoma; A498 renal; OVCAR-5 ovarian; MDA-MB-231 breast; SNB-19 CNS; PC-3 prostate; HCT-116 colon; EKVX NSCLC; NCI-H226 lung; SK-MEL-28 melanoma; HOP-62 NSCLC; IGROV1 ovarian; CAKI-1 renal; SR leukemia; RPMI-8226 leukemia.
Holding throughout (experiment): growth of human tumour cells (NCI), 48 h

Turning to `CSc1ccc(/C=C/C(=O)c2nc3ccccc3[nH]2)cc1`, the TGI with COLO 205 colon is 96 µM; with HL-60(TB) leukemia, 43.1 µM; in the assay on UACC-257 melanoma it was 67.1 µM; in the assay with K-562 leukemia, more than 100 µM; with MOLT-4 leukemia it was 18.6 µM; in the assay with LOX IMVI melanoma, 45.9 µM. The TGI turned out to be 41.2 µM in the assay on A498 renal; 88.2 µM in the assay with OVCAR-5 ovarian; 24.3 µM in the assay with MDA-MB-231 breast; 49.4 µM in the assay on SNB-19 CNS; 68.6 µM with PC-3 prostate; 31.4 µM in the assay with HCT-116 colon. Moreover, the TGI in the assay with EKVX NSCLC is 54.4 µM; in the assay with NCI-H226 lung, 56.9 µM; with SK-MEL-28 melanoma it was more than 100 µM; in the assay on HOP-62 NSCLC, 82.1 µM; with IGROV1 ovarian it was more than 100 µM; in the assay on CAKI-1 renal, 6.19 µM. The TGI in the assay on SR leukemia is 6.56 µM; with RPMI-8226 leukemia, 13.4 µM.

Turning to `CCCCCCCCCCCCCCCCC(=O)NCC(=O)NCC(=O)NC(Cc1ccccc1)C(=O)Oc1ccc([N+](=O)[O-])cc1` (centres undefined), the TGI in the assay with COLO 205 colon was 35.8 µM; with HL-60(TB) leukemia, more than 100 µM; in the assay with UACC-257 melanoma, 57.4 µM; with K-562 leukemia it was 56.6 µM; with MOLT-4 leukemia it was 38.7 µM; with LOX IMVI melanoma, 38.7 µM. Also, the TGI in the assay with A498 renal was more than 100 µM; in the assay on OVCAR-5 ovarian, 57.7 µM; with MDA-MB-231 breast it was 38.9 µM; in the assay with PC-3 prostate, 86.6 µM; in the assay with HCT-116 colon it was 32.6 µM; in the assay on EKVX NSCLC, more than 100 µM. The TGI in the assay with NCI-H226 lung was 70 µM; in the assay on SK-MEL-28 melanoma, 30.3 µM; in the assay on HOP-62 NSCLC, more than 100 µM; in the assay on IGROV1 ovarian, more than 100 µM; with CAKI-1 renal, 32.2 µM; in the assay with SR leukemia, 51.3 µM. In the assay on RPMI-8226 leukemia, this compound returned a TGI of 58.2 µM.

On to `CC(=O)O[C@H]1C[C@H]2[C@@H]([C@H](OC(C)=O)C[C@@H]3CC4(CC[C@@]32C)OOC2(CCCCC2)OO4)[C@@H]2CC[C@H]([C@H](C)CCC(N)=O)[C@@]12C`, for which the TGI in the assay on COLO 205 colon was 3.68 µM; with HL-60(TB) leukemia it was 3.81 µM; in the assay with UACC-257 melanoma it was 19.9 µM; with K-562 leukemia it was 6.02 µM; in the assay on MOLT-4 leukemia, 2.9 µM; in the assay on A498 renal it was 18.1 µM. The TGI in the assay with OVCAR-5 ovarian worked out at 6.65 µM; in the assay on MDA-MB-231 breast, 4.22 µM; in the assay with SNB-19 CNS it was 20.1 µM; in the assay with PC-3 prostate, 4.15 µM; in the assay on HCT-116 colon it was 11.2 µM; in the assay on EKVX NSCLC, 3.23 µM. The TGI in the assay on NCI-H226 lung was 6.8 µM; with SK-MEL-28 melanoma it was 24.7 µM; in the assay on HOP-62 NSCLC, 2.11 µM; in the assay with IGROV1 ovarian it was 0.474 µM; with CAKI-1 renal, 2.14 µM; with SR leukemia, 1.88 µM. Also, the TGI in the assay on RPMI-8226 leukemia turned out to be 2.7 µM.

Consider `COc1ccc2c(c1)OCC1=C2Oc2ccccc2C1`, for which the TGI in the assay with COLO 205 colon is 49.2 µM; in the assay on HL-60(TB) leukemia, more than 100 µM; in the assay on UACC-257 melanoma, 87.6 µM; in the assay on K-562 leukemia, more than 100 µM; with MOLT-4 leukemia, 85.5 µM; in the assay with LOX IMVI melanoma, 55.9 µM. Also, the TGI is more than 100 µM in the assay with A498 renal; 88.8 µM with OVCAR-5 ovarian; more than 100 µM with MDA-MB-231 breast; more than 100 µM with PC-3 prostate; more than 100 µM in the assay with HCT-116 colon; more than 100 µM in the assay on EKVX NSCLC. Besides, the TGI in the assay with NCI-H226 lung, in the assay on HOP-62 NSCLC, in the assay with IGROV1 ovarian, with CAKI-1 renal, with SR leukemia and with RPMI-8226 leukemia was more than 100 µM each time.

Regarding `CSC1=NC(=O)CCN1C1OCC(OC(C)=O)C(OC(C)=O)C1OC(C)=O` (centres undefined), the TGI was more than 31.6 µM in the assay on COLO 205 colon; more than 23 µM in the assay on HL-60(TB) leukemia; more than 31.6 µM in the assay with UACC-257 melanoma; more than 31.6 µM in the assay with K-562 leukemia; more than 31.6 µM in the assay with MOLT-4 leukemia; 25.3 µM with A498 renal. Besides, the TGI in the assay on OVCAR-5 ovarian was more than 31.6 µM; in the assay with MDA-MB-231 breast it was 22.4 µM; in the assay with SNB-19 CNS, more than 31.6 µM; in the assay with PC-3 prostate it was more than 31.6 µM; in the assay with HCT-116 colon, more than 31.6 µM; in the assay on EKVX NSCLC it was more than 31.6 µM. The TGI with NCI-H226 lung is more than 31.6 µM; with SK-MEL-28 melanoma, 25.4 µM; in the assay on HOP-62 NSCLC it was more than 31.6 µM; with IGROV1 ovarian, 23 µM; in the assay on CAKI-1 renal, more than 31.6 µM; in the assay with SR leukemia it was more than 31.6 µM. In the assay with RPMI-8226 leukemia, the TGI is more than 31.6 µM.

For `COC(=O)c1c(O)ccc2c1c1cc3ccccc3c(O)c1n2Cc1ccccc1Cl`, the TGI in the assay on COLO 205 colon is 30.4 µM; in the assay on HL-60(TB) leukemia, 74.9 µM; with UACC-257 melanoma, more than 100 µM; in the assay on K-562 leukemia it was more than 100 µM; in the assay on MOLT-4 leukemia, more than 100 µM; in the assay on A498 renal it was more than 100 µM. The TGI was more than 100 µM in the assay on OVCAR-5 ovarian; more than 100 µM in the assay with MDA-MB-231 breast; more than 100 µM in the assay on SNB-19 CNS; more than 100 µM in the assay with PC-3 prostate; 28 µM with HCT-116 colon; 87.1 µM with EKVX NSCLC. Further, the TGI in the assay with NCI-H226 lung is more than 100 µM; in the assay on SK-MEL-28 melanoma it was 46.4 µM; in the assay on HOP-62 NSCLC, 59.3 µM; in the assay on IGROV1 ovarian it was 44.8 µM; with CAKI-1 renal it was 61.9 µM; with SR leukemia, more than 100 µM. The TGI with RPMI-8226 leukemia was found to be 70 µM.

Source of the values: PubChem BioAssay (NCI).
